Among the data in patent US8865734B2 (priority 2010, dated 2014) are MIC values, retold here.

In brackets after ≈: the same amount, converted by molar mass. A value given as a limit tells only on which side of the number the result lay.

Experiment [1] concerns in vitro grown Mycobacteria (M. tuberculosis). Description: QUM: Quantification of in vitro grown Mycobacteria (in vitro growth fluorescence assay). Format: cell-based. To be noted: Mycobacterium tuberculosis; MIC, 80% bacterial growth inhibition; in vitro growth; read-out: QUM. In a few lines:
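Mycobacterium tuberculosis grown in vitro was quantified by fluorescence across compound dose responses. MIC is defined as the minimum concentration producing 80% growth inhibition.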

Experiment [2] concerns M. tuberculosis inside the host macrophage. Nature of the experiment: QIM: Quantification of Intracellular Mycobacteria (intracellular growth assay, phenotypic cell-based). The note with it: Mycobacterium tuberculosis; MIC, 80% bacterial growth inhibition; intracellular growth; read-out: QIM. The text has this: Accordingly, a phenotypic cell-based assay, suitable for high throughput screening, which allows for the search of compounds that would prevent M. tuberculosis multiplication inside the host macrophage was utilized (WO2010003533A2), overcoming many of the numerous and burdensome steps involved in previous methodologies (Arain et al., 1996).
A 120,000 small molecule compound library was screened using a validated phenotypic cell-based assay (WO2010003533A2). Active compounds from the primary screen were confirmed via dose response in the intracellular (QIM) assay and an in vitro (QUM) assay, wherein the abbreviation “QIM” stands for Quantification of Intracellular Mycobacteria and the abbreviation “QUM” stands for Quantification of in vitro grown Mycobacteria. […] The MIC is the minimum concentration of compound required to obtain 80% bacterial growth inhibition.
The imidazopyridine compounds (scaffolds Ia and Ib; see Table 1) underwent derivatization according to the methods outlined below (Schemes 1-13). Resulting derivatives were examined for inhibitory activity (MIC) using the assays described above (Example 1) and the results are summarized in Table 1.

For the compound `CCc1nc2ccc(C)cn2c1C(=O)NCc1ccc(Oc2ccccc2)cc1` [Compound 63, 2-Ethyl-6-methyl-N-(4-phenoxybenzyl)imidazo[1,2-a]pyridine-3-carboxamide], the MIC in experiment [1] and in experiment [2] was less than 1 µM each time.
Take `CCc1nc2ccc(C)cn2c1C(=O)NCc1ccc(C(C)(C)C)cc1` [Compound 64, N-(4-tert-Butylbenzyl)-2-ethyl-6-methylimidazo[1,2-a]pyridine-3-carboxamide]: the MIC in experiment [1] and in experiment [2] was less than 1 µM throughout.
As to `CCc1nc2ccc(C)cn2c1C(=O)NCc1ccc(OC(F)(F)F)cc1` [Compound 65, 2-Ethyl-6-methyl-N-(4-(trifluoromethoxy)benzyl)imidazo[1,2-a]pyridine-3-carboxamide], the MIC in experiment [1] and in experiment [2] was less than 1 µM in each case.
Take `CCc1nc2ccc(C)cn2c1C(=O)NCc1ccc2c(ccn2C)c1` [Compound 66, 2-Ethyl-6-methyl-N-((1-methyl-1H-indol-5-yl)methyl)imidazo[1,2-a]pyridine-3-carboxamide]: the MIC in experiment [1] and in experiment [2] was less than 1 µM in each case.
For `CCc1nc2ccc(C)cn2c1C(=O)NCc1ccc2ccn(C)c2c1` [Compound 67, 2-Ethyl-6-methyl-N-((1-methyl-1H-indol-6-yl)methyl)imidazo[1,2-a]pyridine-3-carboxamide], the MIC in experiment [1] and in experiment [2] was less than 1 µM each time.
Take `CCc1nc2ccc(Cl)cn2c1C(=O)NCc1ccc(Cl)cc1` [Compound 70, 6-Chloro-N-(4-chlorobenzyl)-2-ethylimidazo[1,2-a]pyridine-3-carboxamide]: the MIC in experiment [1] and in experiment [2] was less than 1 µM throughout.
Turning to `CCc1nc2ccc(Cl)cn2c1C(=O)NCc1ccc(Oc2ccccc2)cc1` [Compound 71], the MIC in experiment [1] and in experiment [2] was less than 1 µM throughout.
As for `CCc1nc2ccc(Cl)cn2c1C(=O)NCc1ccc(OC(F)(F)F)cc1` [Compound 72], the MIC in experiment [1] and in experiment [2] was less than 1 µM each time.
With `CCc1nc2ccc(Cl)cn2c1C(=O)NCc1ccc(C(C)(C)C)cc1` [Compound 73], the MIC in experiment [1] and in experiment [2] was less than 1 µM throughout.
As to `CCc1nc2ccc(Cl)cn2c1C(=O)NCc1ccc(N2CCOCC2)cc1` [Compound 74], the MIC in experiment [1] and in experiment [2] was less than 1 µM each time.
In the case of `CCc1nc2ccc(Cl)cn2c1C(=O)NCc1ccc(OC(C)C)cc1` [Compound 75], the MIC in experiment [1] and in experiment [2] was less than 1 µM throughout.
Take `CCc1nc2ccc(Cl)cn2c1C(=O)NCc1ccc(OCC(C)C)cc1` [Compound 76]: the MIC in experiment [1] and in experiment [2] was less than 1 µM in each case.
For the compound `CCc1nc2ccc(Cl)cn2c1C(=O)NCc1ccc(N2CCCCC2)cc1` [Compound 79, 6-Chloro-2-ethyl-N-(4-(piperidin-1-yl)benzyl)imidazo[1,2-a]pyridine-3-carboxamide], the MIC in experiment [1] and in experiment [2] was less than 1 µM throughout.
For `CCc1nc2ccc(Cl)cn2c1C(=O)NCc1ccc2ccccc2c1` [Compound 80, 6-Chloro-2-ethyl-N-(naphthalen-2-ylmethyl)imidazo[1,2-a]pyridine-3-carboxamide], the MIC in experiment [1] and in experiment [2] was less than 1 µM in each case.
In the case of `CCc1nc2ccc(Cl)cn2c1C(=O)NCc1ccc(-c2ccccc2Cl)cc1` [Compound 82, 6-Chloro-N-((2′-chlorobiphenyl-4-yl)methyl)-2-ethylimidazo[1,2-a]pyridine-3-carboxamide], the MIC in experiment [1] and in experiment [2] was less than 1 µM in each case.
`CCc1nc2ccc(Cl)cn2c1C(=O)NCc1ccc(-c2ccc(Cl)cc2)cc1` [Compound 83, 6-Chloro-N-((4′-chlorobiphenyl-4-yl)methyl)-2-ethylimidazo[1,2-a]pyridine-3-carboxamide]: the MIC in experiment [1] and in experiment [2] was less than 1 µM each time.
As for `CCc1nc2ccc(Cl)cn2c1C(=O)NCc1ccc(-c2ccccc2C)cc1` [Compound 84, 6-Chloro-2-ethyl-N-((2′-methylbiphenyl-4-yl)methyl)imidazo[1,2-a]pyridine-3-carboxamide], the MIC in experiment [1] and in experiment [2] was less than 1 µM throughout.
`CCc1nc2ccc(Cl)cn2c1C(=O)NCc1ccc(-c2cccc(C)c2)cc1` [Compound 85, 6-Chloro-2-ethyl-N-((3′-methylbiphenyl-4-yl)methyl)imidazo[1,2-a]pyridine-3-carboxamide]: the MIC in experiment [1] and in experiment [2] was less than 1 µM throughout.
With `CCc1nc2ccc(Cl)cn2c1C(=O)NCc1ccc(-c2ccc(C)cc2)cc1` [Compound 86, 6-Chloro-2-ethyl-N-((4′-methylbiphenyl-4-yl)methyl)imidazo[1,2-a]pyridine-3-carboxamide], the MIC in experiment [1] and in experiment [2] was less than 1 µM each time.
As for `CCc1nc2cc(Cl)ccn2c1C(=O)NCc1ccc(Cl)cc1` [Compound 87, 7-Chloro-N-(4-chlorobenzyl)-2-ethylimidazo[1,2-a]pyridine-3-carboxamide], the MIC in experiment [1] and in experiment [2] was less than 1 µM in each case.
As to `CCc1nc2cc(Cl)ccn2c1C(=O)NCc1ccc(O)cc1` [Compound 88, 7-Chloro-2-ethyl-N-(4-hydroxybenzyl)imidazo[1,2-a]pyridine-3-carboxamide], the MIC in experiment [1] and in experiment [2] was 1 to 20 µM (≈ 0.33 to 6.6 µg/mL) throughout.
Take `CCc1nc2cc(Cl)ccn2c1C(=O)NCc1ccc(N2CCCCC2)cc1` [Compound 90, 7-Chloro-2-ethyl-N-(4-(piperidin-1-yl)benzyl)imidazo[1,2-a]pyridine-3-carboxamide]: the MIC in experiment [1] and in experiment [2] was less than 1 µM in each case.
With `CCc1nc2cc(Cl)ccn2c1C(=O)NCc1ccc2ccccc2c1` [Compound 91, 7-Chloro-2-ethyl-N-(naphthalen-2-ylmethyl)imidazo[1,2-a]pyridine-3-carboxamide], the MIC in experiment [1] was less than 1 µM; in experiment [2], 1 to 20 µM (≈ 0.364 to 7.28 µg/mL).
On the same counts, the results for `CCc1nc2cc(Cl)ccn2c1C(=O)NCc1ccc(C(C)(C)C)cc1` [Compound 92, N-(4-tert-Butylbenzyl)-7-chloro-2-ethylimidazo[1,2-a]pyridine-3-carboxamide] are less than 1 µM and less than 1 µM.
Regarding `CCc1nc2cc(Cl)ccn2c1C(=O)NCc1ccc(-c2ccccc2)cc1` [Compound 93], the MIC in experiment [1] and in experiment [2] was less than 1 µM in each case.
As to `CCc1nc2cc(Cl)ccn2c1C(=O)NCc1ccc(-c2ccccc2Cl)cc1` [Compound 94, 7-Chloro-N-((2′-chlorobiphenyl-4-yl)methyl)-2-ethylimidazo[1,2-a]pyridine-3-carboxamide], the MIC in experiment [1] and in experiment [2] was less than 1 µM each time.
On to `CCc1nc2cc(Cl)ccn2c1C(=O)NCc1ccc(-c2ccc(Cl)cc2)cc1` [Compound 95, 7-Chloro-N-((4′-chlorobiphenyl-4-yl)methyl)-2-ethylimidazo[1,2-a]pyridine-3-carboxamide], for which the MIC in experiment [1] and in experiment [2] was less than 1 µM throughout.
`CCc1nc2cc(Cl)ccn2c1C(=O)NCc1ccc(-c2ccccc2C)cc1` [Compound 96, 7-Chloro-2-ethyl-N-((2′-methylbiphenyl-4-yl)methyl)imidazo[1,2-a]pyridine-3-carboxamide]: the MIC in experiment [1] and in experiment [2] was less than 1 µM in each case.
On to `CCc1nc2cc(Cl)ccn2c1C(=O)NCc1ccc(-c2cccc(C)c2)cc1` [Compound 97, 7-Chloro-2-ethyl-N-((3′-methylbiphenyl-4-yl)methyl)imidazo[1,2-a]pyridine-3-carboxamide], for which the MIC in experiment [1] and in experiment [2] was less than 1 µM each time.
Take `CCc1nc2cc(Cl)ccn2c1C(=O)NCc1ccc(-c2ccc(C)cc2)cc1` [Compound 98, 7-Chloro-2-ethyl-N-((4′-methylbiphenyl-4-yl)methyl)imidazo[1,2-a]pyridine-3-carboxamide]: the MIC in experiment [1] and in experiment [2] was less than 1 µM throughout.
For the compound `O=C(NCc1ccc(-c2ccccc2)cc1)c1c(C(F)(F)F)nc2ccc(Cl)cn12` [Compound 99, N-(Biphenyl-4-ylmethyl)-6-chloro-2-(trifluoromethyl)imidazo[1,2-a]pyridine-3-carboxamide], the MIC in experiment [1] and in experiment [2] was less than 1 µM each time.
`CC(C)(C)c1ccc(CNC(=O)c2c(C(F)(F)F)nc3ccc(Cl)cn23)cc1` [Compound 100, N-(4-tert-Butylbenzyl)-6-chloro-2-(trifluoromethyl)imidazo[1,2-a]pyridine-3-carboxamide]: the MIC in experiment [1] and in experiment [2] was less than 1 µM throughout.
`CCc1nc2cc(Cl)ccn2c1C(=O)NCc1ccc(Br)cc1` [Compound 101, N-(4-Bromobenzyl)-7-chloro-2-ethylimidazo[1,2-a]pyridine-3-carboxamide]: the MIC was 1 to 20 µM (≈ 0.393 to 7.85 µg/mL) in experiment [1] and less than 1 µM in experiment [2].
Taken in the same sequence, the figures for `CCc1nc2cc(Cl)ccn2c1C(=O)NCc1ccc(OC(F)(F)F)cc1` [Compound 102, 7-Chloro-2-ethyl-N-(4-(trifluoromethoxy)benzyl)imidazo[1,2-a]pyridine-3-carboxamide] were less than 1 µM and 1 to 20 µM (≈ 0.398 to 7.96 µg/mL).
Consider `CCc1nc2ccc(F)cn2c1C(=O)NCc1ccc(OC(F)(F)F)cc1` [Compound 103, 2-Ethyl-6-fluoro-N-(4-(trifluoromethoxy)benzyl)imidazo[1,2-a]pyridine-3-carboxamide], for which the MIC in experiment [1] is 1 to 20 µM (≈ 0.381 to 7.63 µg/mL); in experiment [2] it was less than 1 µM.
